Reference: patent US9358272B2, “Multicomponent compositions and their uses” (THE ADMINISTRATORS OF THE TULANE EDUCATIONAL FUND, priority 2011, dated 2016)
Entries after “also recorded” stand apart in the source; their conditions may differ.

Tests used:
[1] = tested on: cervical cancer Hela cells; test: Cell proliferation assay (MTT), cervical cancer Hela cells; assay type: cell-based, Human; conditions: single agents and combinations, VPA 2.5 mM in FIGS. 19, 22
Description: (§7) Briefly, fifty μl of medium with or without tested compounds was added to 96-well plates. Another 50 μl of tested cancer cells (1×10^5 cells/ml) suspended in culture medium was dispensed into each well. The plates were incubated at 37° C. for 3 days. Afterward, plates were added with a 15 μl dye solution per well and incubated at 37° C. for 4 hours. To each well was then added 100 μl of the solubilization solution and the plates were incubated at 37° C. again until the contents in each well became a uniformly colored solution. The plates were measured at 570 nm by a Victor Reader (PerkinElmer).

[2] = tested on: pancreatic carcinoid BON cells; test: Cell proliferation assay (MTT), BON cells; assay type: cell-based, Human; conditions: single agents and combinations, 2.5 mM VPA or 10 uM SBHA in FIGS. 20, 23
Description: as §7

[3] = tested on: small cell lung cancer DMS-53 cells; test: Cell proliferation assay (MTT), DMS-53 cells; assay type: cell-based; conditions: single agents and combinations, 2.5 mM VPA or 10 uM SBHA in FIGS. 21, 24
Description: as §7

[4] = tested on: ovarian cancer OVCAR8 cells; test: Cell proliferation assay (MTT), OVCAR8 cells; assay type: cell-based, Human; conditions: single agents and combinations
Description: (§1) Cell Proliferation Assay (MTT)
(§2) The cell proliferation assay was performed as described previously in Sun et al., Bioorg Med Chem Lett, 2004, Vol. 14, pp. 2041-2046. Briefly, 50 μl aliquots of medium with different concentrations of compounds were added to 96-well plates. All compound concentrations were tested in triplicate. Another 50 μl of the cell stock (1×10^5 cells/ml of media) was dispensed into each test well and the plates were incubated at 37° C. in a CO2 incubator for 3 days. Following the incubation period, 15 μl of the dye solution was added to each well and the plates were then incubated at 37° C. for 4 hours, followed by the addition of 100 μl per well of the solubilization solution. The plates were incubated at 37° C. until the contents in each well became a uniform-colored solution. The absorbance was measured and recorded at 570 nm by a Victor Plate Reader.
(§3) The cell proliferation assay (Promega, Madison, Wis.) was performed as described in Sun et al., Bioorg Med Chem Lett, 2004, Vol. 14, pp. 2041-2046. The absorbance was measured and recorded at 570 nm by a Victor Plate Reader (PerkinElmer, Boston, Mass.).

[5] = tested on: pancreatic cancer CFPAC-1 cells; test: Cell proliferation assay (MTT), CFPAC-1 cells; assay type: cell-based, Human; conditions: single agents and combinations
Description: as §1, §2, §3

[6] = tested on: colonrectal cancer HT-29 cells; test: Cell proliferation assay (MTT), HT-29 cells; assay type: cell-based, Human; conditions: single agents and combinations
Description: as §1, §2, §3

CNDT2 cells = test: Cell proliferation assay (MTT), CNDT2 cells; assay type: cell-based; conditions: single agents and combinations
Description: (§4) Cell Proliferation Assay (MTT) The cell proliferation assay (Promega, Madison, Wis.) was performed as described in Sun et al., Bioorg Med Chem Lett, 2004, Vol. 14, pp. 2041-2046. The absorbance was measured and recorded at 570 nm by a Victor Plate Reader (PerkinElmer, Boston, Mass.).

lung cancer A549 cells [7] = test: Cell proliferation assay (MTT), A549 cells; assay type: cell-based
Description: as §4

[8] = tested on: prostate cancer DU-145 cells; test: Cell proliferation assay (MTT), DU-145 cells; assay type: cell-based; conditions: single agents and combinations
Description: as §4

[9] = tested on: prostate cancer PC-3 cells; test: Cell proliferation assay (MTT), PC-3 cells; assay type: cell-based; conditions: single agents and combinations
Description: as §4

[10] = tested on: ovarian cancer NCI/ADR-RES cells; test: Cell proliferation assay (MTT), NCI/ADR-RES cells; assay type: cell-based
Description: as §4

[11] = tested on: medullary thyroid cancer (MTC) TT cells; test: Cell proliferation assay (MTT), TT cells; assay type: cell-based; conditions: single agents and combinations
[12] = tested on: hepatoma HB-8064 (Hep3B) cells; test: Cell proliferation assay (MTT), HB-8064 cells; assay type: cell-based
Description: as §4

T-ALL HPB-ALL cells = test: Cell proliferation assay (MTT), HPB-ALL cells; assay type: cell-based, Human
Description: as §4

Jurkat cells [13] = test: Cell proliferation assay (MTT), Jurkat cells; assay type: cell-based
Description: as §4

osteosarcoma U2OS cells = test: Cell proliferation assay (MTT), U2OS cells; assay type: cell-based, Human
Description: as §4

[14] = tested on: cervical cancer Hela tumors; test: In vivo tumor growth and treatment, Hela tumors; design: species or system nude mice; conditions: for tumor inhibitory rate: Hela tumors in nude mice
Description: In Vivo Tumor Growth and Treatment
All mice were monitored weekly. Tumor volumes were measured at 11 days post-implantation and bodyweights taken once a week. Tumors were weighed and photographed when experiments were over.
After being harvested during exponential growth phase, cells were washed 3 times with ice-cold PBS and then re-suspended in ice-cold PBS at a cell density of 4×10^7 cells/ml. […] Tumor-carrying mice were separated into four groups (n=8-10) for further treatment using s.c. injections that was applied in the flank opposite of the tumors. A control group was injected with PBS, and three tested groups were treated with compounds. One group received conjugate COL-SST (2 mg/kg) and one group received 200 mg/kg of VPA. The last group was treated with 100 mg/kg of VPA in combination with 1 mg/kg of COL-SST. All mice were injected once a day, five times a week. Tumor volumes were measured and bodyweights taken once a week.
After being harvested during their exponential growth phase, cells were washed 3 times with ice-cold PBS and then re-suspended in ice-cold PBS at a cell density of 4×10^7 cells/ml. […] Tumor-carrying mice were separated into four groups (n=8-10) for further treatment using s.c. injections that were applied in the flank opposite to the tumors. A control group was injected with PBS and three tested groups were treated with compounds. One group received conjugate COL-SST (2 mg/kg) and one group received 200 mg/kg of VPA. The last group was treated with 100 mg/kg of VPA in combination with 1 mg/kg of COL-SST. All mice were injected once a day, five times a week. Tumor volumes were measured and bodyweights taken once a week.

[15] = tested on: gene expression in SCLC DMS-53 cells; test: RT-PCR / real-time PCR gene expression, DMS-53 cells; assay type: cell-based
Description: (§5) RT-PCR, Real-Time PCR RT-PCR was performed on total RNA that was isolated from tumor cells as described in the protocol (Invitrogen, Carlsbad, Calif.). All primers for SST, BN, and PACAP receptors were obtained from previously published reports, such as Sun et al. 2011. The PCR amplification is regularly 35 cycles, with more or less cycles due to the difference in RNA abundance of these investigated genes. Primers used for real-time PCR analyses were identical to those described above. Real-time PCR assays were performed as described in Sun et al 2011. β-actin was used as the internal control and results were calculated by applying 2^−ΔΔCT methods as described above.

[16] = tested on: gene expression in MTC TT cells; test: RT-PCR / real-time PCR gene expression, TT cells; assay type: cell-based
Description: as §5

[17] = tested on: cervical cancer Hela cells; test: VPA-induced cell morphological change, Hela cells; assay type: cell-based, Human; conditions: VPA at 8 mM in FIG. 25
Text: (§6) The cancer cells were inspected and photographed under an inverted light microscope at 10× magnification.

[18] = tested on: pancreatic carcinoid BON cells; test: VPA-induced cell morphological change, BON cells; assay type: cell-based, Human
Text: as §6

lung cancer A549 cells [19] = test: VPA-induced cell morphological change, A549 cells; assay type: cell-based
Text: as §6

SCLC DMS53 cells = test: VPA-induced cell morphological change, DMS53 cells; assay type: cell-based
Text: as §6

cancer DU-145 cells = test: VPA-induced cell morphological change, DU-145 cells; assay type: cell-based
Text: as §6

Leukemia MOLT-4 cells = test: VPA-induced cell morphological change, MOLT-4 cells; assay type: cell-based
Text: as §6

Jurkat cells [20] = test: VPA-induced cell morphological change, Jurkat cells; assay type: cell-based
Text: as §6

HPB-ALL cells = test: VPA-induced cell morphological change, HPB-ALL cells; assay type: cell-based, Human
Text: as §6

[21] = tested on: ovarian cancer NCI/ADR-RES cells; test: VPA-induced cell morphological change, NCI/ADR-RES cells; assay type: cell-based
Text: as §6

MTC TT cells = test: VPA-induced cell morphological change, TT cells; assay type: cell-based
Text: as §6

Structure (SMILES): CCCC(CCC)C(=O)O [VPA, valproic acid]
- cell growth suppression (MTT), in words [1]: displayed growth inhibition; also recorded: suppressed cell proliferation in a dose-dependent manner; also recorded: induced growth arrest; also recorded: suppressed cervical cancer Hela cell growth in a dose-dependent manner
- cell growth suppression (MTT), in words [2]: displayed growth inhibition; also recorded: induced growth arrest; also recorded: suppressed growth
- cell growth suppression (MTT), in words [3]: displayed growth inhibition; also recorded: induced growth arrest
- cell growth suppression (MTT), in words [4]: displayed its anti-proliferative ability; also recorded: displays its anti-proliferation ability
- cell growth suppression (MTT), in words [5]: displayed its anti-proliferative ability
- cell growth suppression (MTT), in words [6]: displayed its anti-proliferative ability; also recorded: displays its anti-proliferation ability
- cell growth suppression (MTT), in words (CNDT2 cells): suppressed growth
- cell growth suppression (MTT), in words (lung cancer A549 cells [7]): little effect; also recorded: not apparent
- cell growth suppression (MTT), in words [8]: displayed its anti-proliferative ability; also recorded: displays its anti-proliferation ability
- cell growth suppression (MTT), in words [9]: displayed its anti-proliferative ability; also recorded: displays its anti-proliferation ability
- cell growth suppression (MTT), in words [10]: displayed its anti-proliferative ability; also recorded: displays its anti-proliferation ability
- cell growth suppression (MTT), in words [11]: induced growth arrest
- cell growth suppression (MTT), in words [12]: displayed its anti-proliferative ability
- cell growth suppression (MTT), in words (T-ALL HPB-ALL cells): displayed its anti-proliferative ability
- cell growth suppression (MTT), in words (Jurkat cells [13]): displayed its anti-proliferative ability
- cell growth suppression (MTT), in words (osteosarcoma U2OS cells): displayed its anti-proliferative ability
- tumor inhibitory rate ([14]; VPA at 200 mg/kg s.c. once a day, five times a week, FIG. 42): 36.7%
- tumor inhibitory rate ([14]; VPA at 200 mg/kg, FIG. 37): 46%
- suppression of Hela tumors, in words ([14]; nude mice, FIG. 42): induced suppression
- effect on expression of SST, BN and PACAP receptors (RT-PCR), in words ([15]; DMS53 cells, VPA treatment, FIG. 55): SSTR2 (5.4-fold, confirmed by real-time PCR), SSTR3, GRPR, and PAC1 increased, with no obvious change in SSTR1, SSTR2, VPAC1, NMBR, and BRS3
- increase of SSTR2 expression ([15]; DMS53 cells, VPA treatment, confirmed by real-time PCR): 5.4 fold
- effect on expression of Notch receptors (RT-PCR), in words ([15]; DMS-53 cells, VPA at serial doses, FIG. 52): increased the expression of Notch1 and Notch2, with no obvious change of expression in the others
- VPA-induced Notch1 increase ([15]; DMS-53 cells, real-time PCR): > 2 fold
- effect on expression of Notch receptors (RT-PCR), in words ([16]; VPA at serial doses, FIG. 52): significantly increase Notch1, Notch2, and Notch3, with a decrease of Notch4 expression
- effect on expression of SST, BN and PACAP receptors (RT-PCR), in words ([16]; VPA treatment, FIG. 55): SSTR2 (2.2-fold, confirmed by real-time PCR), BRS3, NMBR, and VPAC2 increased and SSTR3 and VPAC1 decreased, with no obvious change in the others
- increase of SSTR2 expression ([16]; VPA treatment, confirmed by real-time PCR): 2.2 fold
- cell morphological change, in words [17]: could induce morphological change
- cell morphological change, in words [18]: could induce morphological change
- cell morphological change, in words (lung cancer A549 cells [19]): no effect
- cell morphological change, in words (SCLC DMS53 cells): no effect
- cell morphological change, in words (cancer DU-145 cells): no effect
- cell morphological change, in words (Leukemia MOLT-4 cells): no effect
- cell morphological change, in words (Jurkat cells [20]): no effect
- cell morphological change, in words (HPB-ALL cells): no effect
- cell morphological change, in words [21]: no effect
- cell morphological change, in words (MTC TT cells): no effect
